Source: patent US20240317735A1, “HYDROISOQUINOLINE OR HYDRONAPHTHYRIDINE COMPOUNDS FOR THE TREATMENT OF AUTOIMMUNE DISEASE” (Hoffmann-La Roche Inc., priority 2020, published 2024)

target: T1, TLR9 (Homo sapiens, UniProt Q9NR96); assay: HEK293-Blue-hTLR-9 cells assay (SEAP reporter, ODN2006 stimulation); assay type: cell-based; design: host or cells: HEK293 (HEK-Blue hTLR9); conditions: HEK293-Blue-hTLR9 cells, ODN2006, 20 hrs; read-out: HEK/hTLR9 IC50
T1 sequence (Q9NR96 26-1032): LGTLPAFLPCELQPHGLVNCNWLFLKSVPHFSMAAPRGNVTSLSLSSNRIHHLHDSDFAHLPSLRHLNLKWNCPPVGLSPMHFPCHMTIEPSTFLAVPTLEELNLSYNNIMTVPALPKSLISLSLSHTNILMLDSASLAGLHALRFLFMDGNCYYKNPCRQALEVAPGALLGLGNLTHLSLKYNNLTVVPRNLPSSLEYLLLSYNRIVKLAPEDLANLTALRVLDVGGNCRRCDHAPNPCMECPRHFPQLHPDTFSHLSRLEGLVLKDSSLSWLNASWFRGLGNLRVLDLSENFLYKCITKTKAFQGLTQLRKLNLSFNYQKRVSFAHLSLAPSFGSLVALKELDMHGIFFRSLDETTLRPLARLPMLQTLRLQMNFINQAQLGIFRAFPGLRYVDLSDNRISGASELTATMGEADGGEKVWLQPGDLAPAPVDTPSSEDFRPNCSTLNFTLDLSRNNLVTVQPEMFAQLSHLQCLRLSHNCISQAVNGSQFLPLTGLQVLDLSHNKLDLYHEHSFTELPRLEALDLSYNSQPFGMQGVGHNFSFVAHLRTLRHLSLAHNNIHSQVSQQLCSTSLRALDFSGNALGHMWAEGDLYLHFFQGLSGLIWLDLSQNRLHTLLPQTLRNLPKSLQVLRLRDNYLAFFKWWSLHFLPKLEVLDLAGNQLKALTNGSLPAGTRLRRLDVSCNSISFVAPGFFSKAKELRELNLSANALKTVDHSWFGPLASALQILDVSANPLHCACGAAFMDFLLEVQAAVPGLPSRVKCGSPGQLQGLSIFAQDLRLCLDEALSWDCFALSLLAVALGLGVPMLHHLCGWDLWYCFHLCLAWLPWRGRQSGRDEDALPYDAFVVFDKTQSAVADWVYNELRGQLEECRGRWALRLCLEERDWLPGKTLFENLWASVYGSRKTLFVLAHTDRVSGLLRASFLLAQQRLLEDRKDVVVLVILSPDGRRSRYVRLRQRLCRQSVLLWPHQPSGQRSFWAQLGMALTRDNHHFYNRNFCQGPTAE
Procedure: The following tests were carried out in order to determine the activity of the compounds of formula (I) and (Ia) in HEK293-Blue-hTLR-7/8/9 cells assay.
A stable HEK293-Blue-hTLR-9 cell line was purchased from InvivoGen (Cat. #: hkb-htlr9, San Diego, California, USA). These cells were originally designed for studying the stimulation of human TLR9 by monitoring the activation of NF-κB. A SEAP (secreted embryonic alkaline phosphatase) reporter gene was placed under the control of the IFN-β minimal promoter fused to five NF-κB and AP-1-binding sites. The SEAP was induced by activating NF-κB and AP-1 via stimulating HEK-Blue hTLR9 cells with TLR9 ligands. Therefore the reporter expression was declined by TLR9 antagonist under the stimulation of a ligand, such as ODN2006 (Cat. #: tlrl-2006-1, Invivogen, San Diego, California, USA), for incubation of 20 hrs. The cell culture supernatant SEAP reporter activity was determined using QUANTI-Blue™ kit (Cat. #: rep-qb1, Invivogen, San Diego, California, USA) at a wavelength of 640 nm, a detection medium that turns purple or blue in the presence of alkaline phosphatase.
HEK293-Blue-hTLR9 cells were incubated at a density of 250,000-450,000 cells/mL in a volume of 170 μL in a 96-well plate in Dulbecco's Modified Eagle's medium (DMEM) containing 4.5 g/L glucose, 50 U/mL penicillin, […], […], 2 mM L-glutamine, 10% (v/v) heat-inactivated fetal bovine serum with addition of 20 μL test compound in a serial dilution in the presence of final DMSO at 1% and 10 μL of 20 uM ODN2006 in above DMEM, perform incubation under 37° C. in a CO2 incubator for 20 hrs. Then 20 μL of the supernatant from each well was incubated with 180 μL Quanti-blue substrate solution at 37° C. for 2 h and the absorbance was read at 620˜655 nm using a spectrophotometer.
The signaling pathway that TLR9 activation leads to downstream NF-κB activation has been widely accepted, and therefore similar reporter assay was modified for evaluating TLR9 antagonist.

Compound | IC50 [nM]
C[C@H]1CN(c2ccnc3c2cnn3C)Cc2ccc(N3CCC(N4CC(N)C4)CC3)cc21 [Example 28, 1-[1-[(4R)-4-methyl-2-(1-methylpyrazolo[3,4-b]pyridin-4-yl)-3,4-dihydro-1H-isoquinolin-6-yl]-4-piperidyl]azetidin-3-amine] | 150
C[C@H]1CN(c2ccnc3c2cnn3C)Cc2ccc(N3CCC(N4CC[C@@H](N)[C@H](O)C4)CC3)cc21 [Example 29, trans-4-amino-1-[1-[(4R)-4-methyl-2-(1-methylpyrazolo[3,4-b]pyridin-4-yl)-3,4-dihydro-1H-isoquinolin-6-yl]-4-piperidyl]piperidin-3-ol] | 106
C[C@H]1CN(c2ccnc3c2cnn3C)Cc2ccc(N3CCN(S(=O)(=O)C4CCNC4)CC3)cc21 (stereo partly drawn) [Example 33, (4R)-4-methyl-2-(1-methylpyrazolo[3,4-b]pyridin-4-yl)-6-(4-pyrrolidin-3-ylsulfonylpiperazin-1-yl)-3,4-dihydro-1H-isoquinoline] | 326
C[C@H]1CN(c2ccnc3c2cnn3C)Cc2ccc(N3CC4(CCNC4)OC3=O)cc21 (stereo partly drawn) [Example 35, 3-[(4R)-4-methyl-2-(1-methylpyrazolo[3,4-b]pyridin-4-yl)-3,4-dihydro-1H-isoquinolin-6-yl]-1-oxa-3,7-diazaspiro[4.4]nonan-2-one] | 182
C[C@H]1CN(c2ccnc3c2cnn3C)Cc2ccc(N3CCN(Cc4cn(C)cn4)CC3)cc21 [Example 37, (4R)-4-methyl-6-[4-[(1-methylimidazol-4-yl)methyl]piperazin-1-yl]-2-(1-methylpyrazolo[3,4-b]pyridin-4-yl)-3,4-dihydro-1H-isoquinoline] | 222
C[C@H]1CN(c2ccnc3c2cnn3C)Cc2ccc(N3CCN(CCN(C)C)CC3)cc21 [Example 38, N,N-dimethyl-2-[4-[(4R)-4-methyl-2-(1-methylpyrazolo[3,4-b]pyridin-4-yl)-3,4-dihydro-1H-isoquinolin-6-yl]piperazin-1-yl]ethanamine] | 147
C[C@H]1CN(c2ccnc3c2cnn3C)Cc2ccc(OC[C@H]3CNCCN3C)cc21 [Example 43, (4R)-4-methyl-2-(1-methylpyrazolo[3,4-b]pyridin-4-yl)-6-[[(2R)-1-methylpiperazin-2-yl]methoxy]-3,4-dihydro-1H-isoquinoline] | 242
C[C@H]1CN(c2ccnc3c2cnn3C)Cc2ccc(OC[C@@H]3CNCCN3C=O)cc21 [Example 45, (2S)-2-[[(4R)-4-methyl-2-(1-methylpyrazolo[3,4-b]pyridin-4-yl)-3,4-dihydro-1H-isoquinolin-6-yl]oxymethyl]piperazine-1-carbaldehyde] | 350
C[C@H]1CN(c2ccnc3c2cnn3C)Cc2ccc(N3C[C@@H](N)[C@H](O)C3)cc21 [Example 46, trans-4-amino-1-[(4R)-4-methyl-2-(1-methylpyrazolo[3,4-b]pyridin-4-yl)-3,4-dihydro-1H-isoquinolin-6-yl]pyrrolidin-3-ol] | 360
Cc1cc(N2Cc3ccc(N4C[C@@H](N)[C@H](O)C4)cc3[C@@H](C)C2)c2cnn(C)c2n1 [Example 47, trans-4-amino-1-[(4R)-2-(1,6-dimethylpyrazolo[3,4-b]pyridin-4-yl)-4-methyl-3,4-dihydro-1H-isoquinolin-6-yl]pyrrolidin-3-ol] | 230
Cc1cc(N2Cc3ccc(N4CC5(CNCCO5)C4)cc3[C@@H](C)C2)c2cnn(C)c2n1 [Example 48, 2-[(4R)-2-(1,6-dimethylpyrazolo[3,4-b]pyridin-4-yl)-4-methyl-3,4-dihydro-1H-isoquinolin-6-yl]-5-oxa-2,8-diazaspiro[3.5]nonane] | 229
C[C@H]1CN(c2ccnc3c2cnn3C)Cc2ccc(N3CCNC(CO)C3)cc21 (stereo partly drawn) [Example 49, [4-[(4R)-4-methyl-2-(1-methylpyrazolo[3,4-b]pyridin-4-yl)-3,4-dihydro-1H-isoquinolin-6-yl]piperazin-2-yl]methanol] | 199
C[C@H]1CN(c2ccnc3c2cnn3C)Cc2ccc(N3CCN[C@@H](CO)C3)cc21 [Example 50, [(2R)-4-[(4R)-4-methyl-2-(1-methylpyrazolo[3,4-b]pyridin-4-yl)-3,4-dihydro-1H-isoquinolin-6-yl]piperazin-2-yl]methanol] | 376
C[C@H]1CN(c2ccnc3c2cnn3C)Cc2ccc(N3CCN[C@H](CO)C3)cc21 [Example 51, [(2S)-4-[(4R)-4-methyl-2-(1-methylpyrazolo[3,4-b]pyridin-4-yl)-3,4-dihydro-1H-isoquinolin-6-yl]piperazin-2-yl]methanol] | 365
C[C@H]1CN(c2ccnc3c2cnn3C)Cc2ccc(N3CC4(CCNC4)CC3=O)cc21 (stereo partly drawn) [Example 52, 2-[(4R)-4-methyl-2-(1-methylpyrazolo[3,4-b]pyridin-4-yl)-3,4-dihydro-1H-isoquinolin-6-yl]-2,7-diazaspiro[4.4]nonan-3-one] | 117
Cc1cc(N2Cc3ccc(N4CCC(N)CC4)nc3[C@@H](C)C2)c2cnn(C)c2n1 [Example 58, 1-[(8S)-6-(1,6-dimethylpyrazolo[3,4-b]pyridin-4-yl)-8-methyl-7,8-dihydro-5H-1,6-naphthyridin-2-yl]piperidin-4-amine] | 199
Cc1cc(N2Cc3ccc(N4CCC(C)(N)CC4)nc3[C@@H](C)C2)c2cnn(C)c2n1 [Example 59, 4-methyl-1-[(8S)-6-(1,6-dimethylpyrazolo[3,4-b]pyridin-4-yl)-8-methyl-7,8-dihydro-5H-1,6-naphthyridin-2-yl]piperidin-4-amine] | 121
Cc1cc(N2Cc3ccc(N4CCC(N(C)C)CC4)nc3[C@@H](C)C2)c2cnn(C)c2n1 [Example 60, N,N-dimethyl-1-[(8S)-6-(1,6-dimethylpyrazolo[3,4-b]pyridin-4-yl)-8-methyl-7,8-dihydro-5H-1,6-naphthyridin-2-yl]piperidin-4-amine] | 104
Cc1cc(N2Cc3ccc(N4CCC(O)(CN(C)C)CC4)nc3[C@@H](C)C2)c2cnn(C)c2n1 [Example 61, 4-[(dimethylamino)methyl]-1-[(8S)-6-(1,6-dimethylpyrazolo[3,4-b]pyridin-4-yl)-8-methyl-7,8-dihydro-5H-1,6-naphthyridin-2-yl]piperidin-4-ol] | 129
C[C@H]1CN(c2ccnc3c2cnn3C)Cc2ccc(N3CCNCC3)nc21 [Example 62, (8S)-8-methyl-6-(1-methylpyrazolo[3,4-b]pyridin-4-yl)-2-piperazin-1-yl-7,8-dihydro-5H-1,6-naphthyridine] | 264
CO[C@@H]1CN(c2ccc3c(n2)[C@@H](C)CN(c2cc(C)nc4c2cnn4C)C3)C[C@H]1N [Example 63, (3R,4R)-4-methoxy-1-[(8S)-6-(1,6-dimethylpyrazolo[3,4-b]pyridin-4-yl)-8-methyl-7,8-dihydro-5H-1,6-naphthyridin-2-yl]pyrrolidin-3-amine] | 236
Cc1cc(N2Cc3ccc(OC4CCNCC4)nc3[C@@H](C)C2)c2cnn(C)c2n1 [Example 64, (8S)-6-(1,6-dimethylpyrazolo[3,4-b]pyridin-4-yl)-8-methyl-2-(4-piperidyloxy)-7,8-dihydro-5H-1,6-naphthyridine] | 249
